In patent publication US20250099634A1, “METHOD OF TREATING CANCER” (Novartis AG, priority 2023, published 2025):

What was measured:
Type in all cases: in vivo, human
[1] = NETTER-2 worst post-baseline hematology abnormalities based on CTC grades (Safety Set)
Text: (§1) The laboratory assessments require that blood samples for hematology and blood chemistry, and a urine sample for urinalysis are taken. Laboratory assessments will be performed at the investigational site.
(§2) Blood tests performed 4 weeks after any treatment cannot serve as baseline values for the next treatment.
(§3) All laboratory data will be listed by treatment group, subject, and visit/time and if normal ranges are available abnormalities will be flagged. Summary statistics will be provided by treatment and visit/time. Shift tables using the low/normal/high/(low and high) classification will be used to compare baseline to the worst on-treatment value.
(§4) Grading of laboratory values will be assigned programmatically as per NCI Common Terminology Criteria for Adverse Events (CTCAE) version 5.0 or current version. The calculation of CTCAE grades will be based on the observed laboratory values only, clinical assessments will not be taken into account.
(§5) The following summaries will be generated separately for hematology, and biochemistry tests: • 1. Listing of all laboratory data with values flagged to show the corresponding CTCAE grades if applicable and the classifications relative to the laboratory normal ranges • 2. For laboratory tests where grades are defined by CTCAE, • 3. Worst post-baseline CTCAE grade (regardless of the baseline status). Each subject will be counted only once for the worst grade observed post-baseline. • 4. Shift tables using CTCAE grades to compare baseline to the worst on-treatment value • 5. For laboratory tests where grades are not defined by CTCAE, • 6. Shift tables using the low/normal/high/(low and high) classification to compare baseline to the worst on-treatment value.

[2] = NETTER-2 deaths (Safety Set); conditions: for subjects died within 30 days after the last dose: randomized treatment period
[3] = test system: Grade 2 and Grade 3 advanced GEP-NET; test: NETTER-2 best overall response, ORR and DCR, central review using RECIST 1.1; conditions: for ORR: central assessment
Text: Objective Response Rate (ORR) will be calculated as the rate of patients with a best overall response of partial response (PR) or complete response (CR). Response duration will be calculated from the time of initial response until documented tumor progression. The Duration of Response (DOR) is defined as the time from initially meeting the criteria for response (CR or PR) until the time of progression by RECIST or death due to underlying disease. DOR will be reported descriptively for each group without comparison between groups.
Overall response rate (ORR) is defined as the proportion of subjects with best overall response (BOR) of complete response (CR) or partial response (PR), as per central review and according to RECIST 1.1.
ORR will be calculated based on the FAS and according to the ITT principle. ORR and its 95% confidence interval will be presented by treatment group. The Cochran-Mantel-Haenszel chi-square test, stratified by the randomization stratification factors, will be used to compare ORR between the two treatment groups, at the 1-sided 2.5% level of significance. As a supportive analysis, ORR as per local review will be presented by treatment group, along with 95% confidence intervals.
More precisely, it counts the presence of at least one confirmed CR or confirmed PR or SD. The DCR will be calculated based on FAS according to the ITT principle. DCR and its 95% confidence interval will be presented by treatment group. The Cochrane-Mantel-Haenszel chi-square test, stratified by the randomization stratification factors, will be used to compare DCR between the two treatment groups, at the one-sided 2.5% level of significance. The p-value to be generated using the Cochrane-Mantel-Haenszel chi-square test is considered nominal, and not to be considered confirmatory as it is not part of the testing strategy. The SAP will advise on how to proceed in case of few events in any stratum.

[4] = NETTER-2 worst post-baseline biochemistry abnormalities based on CTC grades (Safety Set)
Text: as §1, §2, §3, §4, §5

[5] = All grades (CTCAE v5.0), randomized treatment period, Safety Set
[6] = central review, Full Analysis Set
[7] = Grade 3/4 (CTCAE v5.0), randomized treatment period, Safety Set

## C[C@@H](O)[C@H](NC(=O)[C@@H]1CSSC[C@H](NC(=O)[C@@H](Cc2ccccc2)NC(=O)CN2CCN(CC(=O)[O-])CCN(CC(=O)[O-])CCN(CC(=O)[O-])CC2)C(=O)N[C@@H](Cc2ccc(O)cc2)C(=O)N[C@H](Cc2c[nH]c3ccccc23)C(=O)N[C@@H](CCCCN)C(=O)N[C@@H]([C@@H](C)O)C(=O)N1)C(=O)O.[177Lu+3] [Lutathera, ^177Lu-DOTA^0-Tyr^3-Octreotate]
[1]; [5]
  Worst post-baseline abnormality: Neutrophils (10E9/L)-Decrease: 55 (37.4) n (%)
[1]; in vivo
  Grade 3/4 hematologic lab abnormality: lymphocytes decrease: 38.1%
  Worst post-baseline abnormality: Leukocytes (10E9/L)-Increase: 0 n (%)
  Worst post-baseline abnormality: Neutrophils (10E9/L)-Decrease: 5 (3.4) n (%)
[2]; Safety Set
  Number of Subjects who Died (Overall): 32 (21.8) n (%)
  Number of Subjects who Died (Overall), primary reason Adverse Event: 2 (1.4) n (%)
  Number of Subjects who Died (Overall), primary reason Disease under Study: 30 (20.4) n (%)
  Number of Subjects who Died on-treatment in randomized treatment period (within 30 days of last dose), primary reason Disease under Study: 2 (1.4) n (%)
  Number of Subjects who Died on-treatment in re-treatment period (within 30 days of last dose): 0 n (%)
  Number of subjects who died in the post-treatment follow up period: 30 (20.4) n (%)
  Number of subjects who died in the post-treatment follow up period, primary reason Adverse Event: 2 (1.4) n (%)
  Number of subjects who died in the post-treatment follow up period, primary reason Disease under Study: 28 (19.0) n (%)
[2]; during the study
  cause of death: adverse event: 1.4%
  cause of death: disease under study: 20.4%
  subjects died during the study: 21.8%
[2]
  subjects died within 30 days after the last dose: 1.4%
[3]; [6]
  Best Overall Response: Complete Response (CR): 8 (5.3) n (%)
  Best Overall Response: Non-CR/Non-PD: 0 n (%)
  Best Overall Response: Partial Response (PR): 57 (37.7) n (%)
  Best Overall Response: Progressive Disease (PD): 8 (5.3) n (%)
  Best Overall Response: Unknown: 6 (4.0) n (%)
  Disease Control Rate (DCR: CR+PR+SD+Non-CR/Non-PD): 137 (90.7) n (%)
  Overall Response Rate (ORR: CR + PR): 65 (43.0) n (%)
[4]; [5]
  Worst post-baseline abnormality: Bilirubin (umol/L)-Increase: 26 (17.7) n (%)
  Worst post-baseline abnormality: Creatinine (umol/L)-Increase: 30 (20.4) n (%)
  Worst post-baseline abnormality: Sodium (mmol/L)-Decrease: 32 (21.8) n (%)
[4]; [7]
  Worst post-baseline abnormality: Gamma Glutamyl Transferase (U/L)-Increase: 38 (25.9) n (%)
[4]; in vivo
  Grade 3/4 biochemical lab abnormality: aspartate aminotransferase increase: 2.7%
  Grade 3/4 biochemical lab abnormality: bilirubin increase: 2.7%
  Worst post-baseline abnormality: Alanine Aminotransferase (U/L)-Increase: 6 (4.1) n (%)
  Worst post-baseline abnormality: Bilirubin (umol/L)-Increase: 4 (2.7) n (%)
  Worst post-baseline abnormality: Creatinine (umol/L)-Increase: 0 n (%)
  Worst post-baseline abnormality: Gamma Glutamyl Transferase (U/L)-Increase: 102 (69.4) n (%)
  Worst post-baseline abnormality: Sodium (mmol/L)-Decrease: 1 (0.7) n (%)
[4]; randomized treatment period
  Grade 3/4 biochemical lab abnormality: GGT increase: 25.9%

## C[C@@H](O)[C@@H]1NC(=O)[C@H](CCCCN)NC(=O)[C@@H](Cc2c[nH]c3ccccc23)NC(=O)[C@H](Cc2ccccc2)NC(=O)[C@@H](NC(=O)[C@H](N)Cc2ccccc2)CSSC[C@@H](C(=O)N[C@H](CO)[C@@H](C)O)NC1=O [Octreotide LAR, octreotide]
[1]; [5]
  Worst post-baseline abnormality: Hemoglobin (g/L)-Decrease: 42 (57.5) n (%)
  Worst post-baseline abnormality: Hemoglobin (g/L)-Increase: 2 (2.7) n (%)
  Worst post-baseline abnormality: Leukocytes (10E9/L)-Decrease: 15 (20.5) n (%)
  Worst post-baseline abnormality: Leukocytes (10E9/L)-Increase: 0 n (%)
  Worst post-baseline abnormality: Lymphocytes (10E9/L)-Decrease: 45 (61.6) n (%)
  Worst post-baseline abnormality: Lymphocytes (10E9/L)-Increase: 3 (4.1) n (%)
  Worst post-baseline abnormality: Neutrophils (10E9/L)-Decrease: 9 (12.3) n (%)
  Worst post-baseline abnormality: Platelets (10E9/L)-Decrease: 15 (20.5) n (%)
[1]; [7]
  Worst post-baseline abnormality: Hemoglobin (g/L)-Decrease: 2 (2.7) n (%)
  Worst post-baseline abnormality: Hemoglobin (g/L)-Increase: 0 n (%)
  Worst post-baseline abnormality: Leukocytes (10E9/L)-Decrease: 0 n (%)
  Worst post-baseline abnormality: Leukocytes (10E9/L)-Increase: 0 n (%)
  Worst post-baseline abnormality: Lymphocytes (10E9/L)-Decrease: 2 (2.7) n (%)
  Worst post-baseline abnormality: Lymphocytes (10E9/L)-Increase: 0 n (%)
  Worst post-baseline abnormality: Neutrophils (10E9/L)-Decrease: 0 n (%)
  Worst post-baseline abnormality: Platelets (10E9/L)-Decrease: 0 n (%)
[1]; randomized treatment period
  Grade 3/4 hematologic lab abnormality: lymphocytes decrease: 2.7%
[2]; Safety Set
  Number of Subjects who Died (Overall): 14 (19.2) n (%)
  Number of Subjects who Died (Overall), primary reason Adverse Event: 1 (1.4) n (%)
  Number of Subjects who Died on-treatment in cross-over period (within 30 days of last dose), primary reason Disease under Study: 1 (1.4) n (%)
  Number of Subjects who Died on-treatment in randomized treatment period (within 30 days of last dose), primary reason Disease under Study: 4 (5.5) n (%)
  Number of subjects who died in the post-treatment follow up period: 9 (12.3) n (%)
  Number of subjects who died in the post-treatment follow up period, primary reason Adverse Event: 1 (1.4) n (%)
  Number of subjects who died in the post-treatment follow up period, primary reason Disease under Study: 8 (11.0) n (%)
[2]; during the study
  cause of death: adverse event: 1.4%
  subjects died during the study: 19.2%
[2]
  subjects died within 30 days after the last dose: 5.5%
[3]; listed as High-dose Octreotide
  ORR: 9.3%
[3]; listed as high-dose Octreotide
  ORR: 9.3% (3.8%, 18.3%) for Lutathera vs. high-dose
[3]; [6]
  Best Overall Response: Complete Response (CR): 0 n (%)
  Best Overall Response: Non-CR/Non-PD: 1 (1.3) n (%)
  Best Overall Response: Partial Response (PR): 7 (9.3) n (%)
  Best Overall Response: Progressive Disease (PD): 14 (18.7) n (%)
  Best Overall Response: Unknown: 11 (14.7) n (%)
  Overall Response Rate (ORR: CR + PR): 7 (9.3) n (%)
[4]; [5]
  Worst post-baseline abnormality: Alanine Aminotransferase (U/L)-Increase: 38 (52.1) n (%)
  Worst post-baseline abnormality: Albumin (g/L)-Decrease: 17 (23.3) n (%)
  Worst post-baseline abnormality: Alkaline Phosphatase (U/L)-Increase: 40 (54.8) n (%)
  Worst post-baseline abnormality: Aspartate Aminotransferase (U/L)-Increase: 40 (54.8) n (%)
  Worst post-baseline abnormality: Bilirubin (umol/L)-Increase: 17 (23.3) n (%)
  Worst post-baseline abnormality: Calcium Corrected (mmol/L)-Increase: 8 (11.0) n (%)
  Worst post-baseline abnormality: Creatinine (umol/L)-Increase: 15 (20.5) n (%)
  Worst post-baseline abnormality: Potassium (mmol/L)-Decrease: 10 (13.7) n (%)
  Worst post-baseline abnormality: Potassium (mmol/L)-Increase: 16 (21.9) n (%)
  Worst post-baseline abnormality: Sodium (mmol/L)-Decrease: 12 (16.4) n (%)
  Worst post-baseline abnormality: Sodium (mmol/L)-Increase: 6 (8.2) n (%)
[4]; [7]
  Worst post-baseline abnormality: Alanine Aminotransferase (U/L)-Increase: 3 (4.1) n (%)
  Worst post-baseline abnormality: Albumin (g/L)-Decrease: 1 (1.4) n (%)
  Worst post-baseline abnormality: Alkaline Phosphatase (U/L)-Increase: 3 (4.1) n (%)
  Worst post-baseline abnormality: Aspartate Aminotransferase (U/L)-Increase: 5 (6.8) n (%)
  Worst post-baseline abnormality: Bilirubin (umol/L)-Increase: 4 (5.5) n (%)
  Worst post-baseline abnormality: Calcium Corrected (mmol/L)-Increase: 1 (1.4) n (%)
  Worst post-baseline abnormality: Creatinine (umol/L)-Increase: 1 (1.4) n (%)
  Worst post-baseline abnormality: Potassium (mmol/L)-Decrease: 2 (2.7) n (%)
  Worst post-baseline abnormality: Potassium (mmol/L)-Increase: 3 (4.1) n (%)
  Worst post-baseline abnormality: Sodium (mmol/L)-Decrease: 1 (1.4) n (%)
  Worst post-baseline abnormality: Sodium (mmol/L)-Increase: 0 n (%)
[4]; randomized treatment period
  Grade 3/4 biochemical lab abnormality: GGT increase: 28.8%
  Grade 3/4 biochemical lab abnormality: aspartate aminotransferase increase: 6.8%
  Grade 3/4 biochemical lab abnormality: bilirubin increase: 5.5%
